# Patent US20240307363A1, “METHODS FOR TREATING A PULMONARY DISEASE WITH AN ALK-5 (TGF BETA R1) INHIBITOR” (Thirona Bio, Inc., priority 2021, published 2024)
# Read-outs that look alike come from different tables or passages of the source.
# Tests used:
# [1] = test system: bleomycin-induced pulmonary fibrosis; conditions: bleomycin-challenged rats, cited from earlier work
# [2] = rats, chronic (>3 months) administration; cited from earlier work
# [3] = dogs, chronic (>3 months) administration; cited from earlier work
# [4] = cynomolgus monkey, in vivo; cited from earlier work
# [5] = cited from earlier work
# bleomycin model = conditions: cited from earlier work
# ALK5 = ALK5 (Homo sapiens (Human), UniProt P36897); assay: In vitro screen for ALK5 kinase inhibition (ALK5 phosphorylation of α-Casein, filter-plate radiometric); type: biochemical; conditions: ALK5 protein 2 nM final, α-Casein substrate; mean of two or more IC50 values
# Procedure: Representative compounds are tested as follows for inhibition of ALK5 autophosphorylation activity and of the ALK5 phosphorylation of α-Casein.
# Representative compounds are screened using the assay procedure for ALK5 kinase activity as described below.
# In a 96 well filter-bottom plate (Millipore, #MSDV N6B 50), 58 μL Assay Buffer is added to reach well. Add 10 μL of Cold ATP mix in Assay Buffer, then 10 μL of a 1:10 dilution of α-Casein stock. Then add 2 μL of compound being tested (DMSO) at a 50× final concentration. Hot ATP mix (10 μL) is added, and the reaction is started with the addition of 10 μL of a 1:350 dilution of the ALK5 protein (2 nM final) in Assay Buffer with 0.05% BSA (Bovine Serum Albumin). […] The reaction is then stopped with the addition of 100 μL of ice-cold 20% TCA (trichloroacetic acid). The assay is then incubated for at least 1 hour at 4° C., and then the contents of each well are filtered by suction through the filter. The wells are washed three times with 200 μL ice-cold 10% TCA. The plate bottom is blotted before and after removing plastic sub-base, and dried overnight at room temperature. Add 30 μL of scintillation fluid, and count 1 minute per well on a Wallac Tri-Lux scintillation counter.
# [6] = rats; cited from earlier work
# heart valves = conditions: preclinical animal model; all heart valves at all doses tested; cited from earlier work
# [7] = test system: bleomycin-induced lung fibrosis; assay: Efficacy study in bleomycin lung fibrosis model; type: in vivo; conditions: mice
# Procedure: Compound 3 may be used to prevent and reverse lung fibrosis and improve lung function and exercise capacity. Male C57BL6/J mice (7-9 weeks old) from the Jackson Laboratory (Bar Harbor, ME), are used for efficacy studies. […] Bleomycin (1-5 U/kg) in […] is intratracheally sprayed into mice lightly anaesthetized with isoflurane (5% in 100%02). Control animals receives […] of 0.9% saline. […] Animals are treated until the end of the study (day 21 post-bleomycin administration). Lung Function and Exercise Capacity: Invasive lung function measurements are taken at specified time points following bleomycin. Mice are anesthetized with 2.5 mg sodium pentobarbital (Abbott Labs, IL), and the trachea cannulated. Animals are mechanically ventilated using a computer-controlled piston ventilator (flexiVent, SCIREQ Inc., Montreal, Canada: tidal volume=10 ml/kg, respiratory rate of 150 breaths/min, 3 cmH2O positive end-expiratory pressure). To test exercise capacity animals are placed on a treadmill at a 5% incline at a speed to 10 m/minute and the speed increased 1 m/minute every 4 minutes of the test until exhausted. Baseline exercise capacity for each mouse is assessed 2 days prior to either saline or bleomycin administration and then once weekly after administration at days 6, 12, and 19 post-instillation. Bronchoalveolar Lavage Cell Assessment: Immediately following lung function measurements, mice are exsanguinated, bronchoalveolar lavage fluid (BALF) is collected, and total and differential cell counts are performed. […] Samples are mixed and centrifuged before injection for LC/MS/MS analysis. LC/MS/MS analysis is conducted by gradient HPLC with selective reaction monitoring (SRM). The calibration range was 40-2,000 ng/ml. The LC/MS/MS system used for the analysis consisted of an AB-Sciex API4000 with an electrospray source connected to an Agilent 1200 pump, a Waters 2777 autosampler, and an Agilent 1100 series column oven. Chromatographic analysis is conducted by HILIC HPLC with an Ascentis Express HILIC ([…], 2.7 um) column. The SRM transition is m/z 132 to m/z 41. Histology: After performing lung function measurements, whole lungs (that are not subject to bronchoalveolar lavage) are inflated under 25 cm H2O pressure with 10% neutral buffered formalin through the tracheal cannula and immersed in formalin for at least 24 h. After being processed into paraffin blocks, the lungs are sectioned ([…]) and stained with either hematoxylin and cosin (H&E) or immunolabeled with an anti-collagen I antibody (rabbit polyclonal, Genetex Inc., Irvine, CA), to assess fibrotic changes in the lungs. To determine the fibrosis histopathology score for the lung of each mouse, the entire left and right longitudinal lung sections (at the level of tracheal bifurcation) are scored separately at 100× magnification and the scores were combined (total score range 0-8). Grading criteria are as follows: Grade 0=no apparent fibrosis; Grade 1=minimal fibrosis with rare foci of mostly interstitial alveolar septal fibrosis affecting less than 5% of the entire lung section; Grade 2=mild fibrosis characterized by multiple foci with thickening of alveolar septa by fibrosis and progressing to regions with fibrous deposition within the alveolar spaces with some damage to the alveoli, affecting 5-25% of the entire lung section; Grade 3=moderate fibrosis with multiple or single coalescing large areas of fibrosis effacing the alveoli with definitive damage to pulmonary architecture, affecting 25-50% of the entire lung section; Grade 4=marked fibrosis with severe distortion of pulmonary parenchyma by large contiguous fibrous areas, affecting 50-75% of the entire lung section. For collagen I IHC quantification, glass slides are scanned at 20× using a Zeiss Mirax scanner (Carl Zeiss Microimaging. Thornwood, NY), and digital slides generated were analyzed using Definiens Tissue Studio software (Definiens, Munich, Germany). […]
# [8] = Intrinsic clearance in human liver microsomes; type: in vitro ADME; conditions: pH 7.4, 0.1 μM test compound, 0.1 mg/mL protein, 1 mM NADPH
# Procedure: Assay methods that evaluate the intrinsic clearance (CLINT) in human liver microsomes (HLMs) have been described in the art (Drug Metab. Dispos., (2005), 33(9), 1304-1311 BMC Pulmonary Medicine (2018), 18(63), 1-13). Representative compounds are tested as follows for their intrinsic clearance (CLINT) in human liver microsomes as follows.
# A […] microsomal incubation cofactor solution was prepared with 100 mM potassium phosphate buffered to pH 7.4 (BD Biosciences, Woburn, Mass.) supplemented with 2 mM NADPH (Sigma-Aldrich, St. Louis, Mo.). 10 mM DMSO stocks of test compound are diluted and spiked into the cofactor solution to yield a 0.2 μM concentration (0.02% v/v DMSO). Aliquots of frozen human liver microsomes (Bioreclamation IVT, Baltimore Md.) are thawed and diluted into 100 mM potassium phosphate buffer to yield microsomal protein concentrations of 0.2 mg/mL. Cofactor/drug and microsomal solutions are pre-warmed separately for 4 minutes in a water bath held at 37° C. Incubations (n=1) are started by the combination of equal volumes of cofactor/drug solution with microsomal solution. The final concentration of test compound is 0.1 μM with a final […] protein concentration of 0.1 mg/mL and final NADPH concentration of 1 mM. […] Samples are then injected onto an AB Sciex API 4000 triple quadrupole mass spectrometer for quantitation by LC-MS/MS. […]
# [9] = test system: luc-CT26 tumor outgrowth in the lungs; assay: Efficacy study in a syngeneic lung cancer model (luc-CT26 cells i.v., lung bioluminescence); type: in vivo; conditions: BALB/c mice
# Procedure: Compound 3 may be used to suppress tumor growth in the lungs of a syngeneic cancer model when administered alone or in combination with an immunotherapeutic agent. Six- to eight-week old BALB/c mice are used for in vivo efficacy studies in accordance with IACUC guidelines. Firefly luciferase-expressing CT-26 mouse colon carcinoma cells (luc-CT26, CSC-RR0237, Creative Biogene, Shirley, NY, USA) are grown at 37° C. in a 5% CO2 humidified atmosphere in Dulbecco's Modified Eagle's Medium (D6429, Dominique Dutscher, Brumath, France) supplemented with 10% foetal bovine serum (500105NIDD, Dominique Dutscher), 0.2% glucose (19002-013, Gibco, Thermo Fisher Scientific, Hampton, NH, USA), 2 mM L-[…], Dominique Dutscher), 100 U/ml penicillin and 100 μg/ml streptomycin (15140155, Gibco, Thermo Fisher Scientific). Cell suspensions are prepared by enzymatic treatment with trypsin-EDTA (11560626, Thermo Fisher Scientific). Luc-CT26 cells (2×10^5 cells/mouse) are injected intravenously into BALB/c mice to generate the cancer model in which tumor outgrowth in the lungs is observed. Following injection of CT26 cells and starting on day 6, the mice are monitored 3 times a week (i.e., day 6, day 8, day 11, day 13, etc.) using an IVIS spectrum imaging system (Caliper, PerkinElmer) after ip injection of D-luciferin. […] Body weight is measured twice weekly.
# Sequence of ALK5 (P36897 34-503, species assumed): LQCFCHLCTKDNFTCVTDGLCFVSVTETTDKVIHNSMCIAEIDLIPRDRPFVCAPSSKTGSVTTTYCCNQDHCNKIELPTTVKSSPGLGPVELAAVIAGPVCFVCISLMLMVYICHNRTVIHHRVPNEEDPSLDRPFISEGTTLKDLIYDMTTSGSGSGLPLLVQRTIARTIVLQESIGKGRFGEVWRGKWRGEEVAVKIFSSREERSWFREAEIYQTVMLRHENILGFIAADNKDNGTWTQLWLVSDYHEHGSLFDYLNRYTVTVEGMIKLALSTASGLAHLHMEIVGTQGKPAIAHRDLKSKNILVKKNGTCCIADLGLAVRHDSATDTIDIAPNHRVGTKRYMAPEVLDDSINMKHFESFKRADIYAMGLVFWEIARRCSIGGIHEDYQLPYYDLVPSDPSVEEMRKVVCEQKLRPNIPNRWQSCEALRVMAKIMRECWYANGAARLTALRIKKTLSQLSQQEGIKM
compound,measurement,setting,value
Cc1cccc(-c2[nH]c(C(C)(C)C)nc2-c2ccc3nccnc3c2)n1 [SB-525334],parameters of lung function,"[1]; after onset of fibrosis, vs vehicle-treated controls",significant dose-dependent improvements
same,pulmonary pathology,[1],significant reduction
"Cc1cccc(-c2nn3c(c2-c2ccnc4ccc(C(N)=O)cc24)CCC3)n1 [Compound 41, galunisertib]",organ toxicities,[2],caused multiple organ toxicities
same,organ toxicities,[3],caused multiple organ toxicities
Fresolimumab: a “pan” TGF-β antibody capable of neutralizing all human isoforms of TGF-β,"epithelial hyperplasia of the gingiva, bladder and nasal turbinate epithelium",[4],induce an epithelial hyperplasia
same,adverse events,"[5]; human, in vivo",bleeding and anemia issues
same,clinical anti-fibrotic efficacy,[5]; scleroderma patients,clear clinical anti-fibrotic efficacy
Cc1cccc(-c2[nH]ncc2-c2ccc(F)c(-c3cnn(CCO)c3)c2)n1 [Compound R-268712],antifibrotic efficacy,bleomycin model,strong antifibrotic efficacy
CCc1cnn(-c2cccc(C)n2)c1-c1cc2cnccc2s1 [Compound 7],IC50,ALK5,4.33 nM
O=C(NC1CCOCC1)c1ccc(-c2cc(-c3c[nH]nc3-c3ccccn3)ccn2)cc1 [Compound 46],physeal dysplasia,[6],induced physeal dysplasia
c1ccc(-c2nc3c(c(-n4ccc5cnccc54)n2)CCC3)nc1 [Compound 47],heart valve lesions,heart valves,induced heart valve lesions
Cc1ccc(Oc2ccnc(Nc3ccc(S(N)(=O)=O)cc3)c2)c(C)n1 [Compound 48],heart valve lesions,heart valves,induced heart valve lesions
"Cc1cccc(-n2ncc(C)c2-c2cc3cnccc3s2)n1 [Compound 3, 2-[4-methyl-1-(6-methylpyridin-2-yl)-1H-pyrazol-5-yl]thieno[3,2-c]pyridine]",HP content,"[7]; 4-hydroxyproline, intranasal",significant reduced
same,bleomycin-induced lung fibrosis,"[7]; dosed intranasally, prophylactic or therapeutic, until day 21",prevents and/or reverses
same,collagen 1 assessed by IHC,[7]; intranasal,reduced
same,fibrosis histopathology scores in the lung,[7]; intranasal,improvements
same,lung function,[7]; intranasal,significantly improved
same,exercise capacity,"[7]; intranasal, treadmill",increased
same,CLint scaled at 0.1 μM,[8],199 mL/min/kg
same,bioluminescence intensity (BLI) in the lungs,"[9]; Compound 3 alone, intranasal",Statistically significant reduction
same,efficacy as measured by reduction in BLI,[9]; combination with an immunotherapeutic agent,increased efficacy
